Results published in publication PMC6525071 (Cell chemical biology, 2019).

Experiments:
[1] = system: DLBCL cell lines; assay: Rescue of IKE-induced cell death by co-treatment with ferroptosis inhibitors; format: cell-based
[2] = system: SUDHL6 cells; assay: Untargeted lipidomics; format: cell-based; conditions: for effect of co-treatment on IKE-induced lipidomic changes: 10 μM co-treatment with 500 nM IKE
[3] = system: cells; assay: Cell survival test of free fatty acids in the presence or absence of IKE; format: cell-based; conditions: for toxicity of free fatty acid to cells: high concentration (100 μM); for effect of free fatty acid on ferroptosis: 10 μM, in the presence of IKE
[4] = system: SUDHL-6 cells; assay: Lipid ROS by flow cytometry with C11-BODIPY; format: cell-based
[5] = system: SUDHL-6 cells; assay: RT-qPCR gene expression in cells; format: cell-based; conditions: for effect of co-treatment on IKE-induced upregulation of lipid metabolism genes: 10 μM co-treatment with 500 nM IKE
[6] = system: SUDHL6 cells; assay: IKE PEG-PLGA cellular activity, CellTiter-Glo viability
[7] = system: SUDHL6 xenograft tumor tissue; assay: TBARS assay on tumor tissue from efficacy study; format: in vivo, mouse
[8] = ref Larraufie et al., 2015; cited from earlier work
[9] = system: cell lines; conditions: ref Larraufie et al., 2015, cited from earlier work
[10] = system: LY8; assay: DLBCL cell line sensitivity to IKE, Cell Titer-Glo viability; format: cell-based; conditions: read-out: cell line sensitivity class (IC50), LY8, IKE 24 hours
[11] = system: HBL1; assay: as above; format: cell-based; conditions: read-out: cell line sensitivity class (IC50), HBL1, IKE 24 hours
[12] = system: SUDHL6 xenograft tumor tissue; assay: RT-qPCR in tumor tissue after a single IKE dose; format: in vivo, mouse; conditions: single dose 50 mg/kg IKE, starting at 3 h
[13] = system: SUDHL-6 cells; assay: Reduced glutathione measurement in cells; format: cell-based
[14] = Pharmacokinetic analysis in mice with three administration routes; format: in vivo, mouse; conditions: single dose IP, IV, PO, NOD/SCID mice, 5% DMSO in HBSS at pH 4
[15] = system: U937; assay: DLBCL cell line sensitivity to IKE, Cell Titer-Glo viability; format: cell-based; conditions: read-out: cell line sensitivity class (IC50), U937, IKE 24 hours
[16] = system: LY7; assay: as above; format: cell-based; conditions: read-out: cell line sensitivity class (IC50), LY7, IKE 24 hours
[17] = system: RIVA; assay: as above; format: cell-based; conditions: read-out: cell line sensitivity class (IC50), IKE 24 hours
[18] = system: SUDHL-6 cells; assay: Immunofluorescence of dihydropyridine-MDA-lysine adduct in cells; format: cell-based; conditions: IKE treatment
[19] = system: SUDHL6 xenograft tumor tissue; assay: GSH in tumor tissue after a single IKE dose; format: in vivo, mouse; conditions: single dose 50 mg/kg IKE IP, starting at 4 hours
[20] = system: caspase-3; assay: Caspase-3 western blot on tumor tissue; format: in vivo, mouse; conditions: upon IKE treatment, efficacy study
[21] = Mouse weight during efficacy study; format: in vivo; conditions: starting from day 9
[22] = system: SUDHL6 xenograft tumor tissue; assay: Immunofluorescence on frozen tumor sections from efficacy study; format: in vivo, mouse
[23] = Pharmacokinetic analysis in NCG mice bearing SUDHL6 xenografts; format: in vivo, mouse
[24] = system: GSH; conditions: ref Narang et al., 2007; Lo et al., 2010; cited from earlier work
[25] = 10 μM fer-1 with 500 nM IKE, 6 hours, SUDHL6 cells
[26] = 10 μM fer-1 co-treatment with 500 nM IKE
[27] = IP injection, SUDHL6 NCG xenograft mice
[28] = single dose 50 mg/kg IP, SUDHL6-xenograft-bearing NCG mice

CC(=O)N(O)CCCCCNC(=O)CCC(=O)N(O)CCCCCNC(=O)CCC(=O)N(O)CCCCCN [DFO, deferoxamine]
effect of DFO co-treatment on IKE-induced cell death ([1]; in culture): inhibited IKE-induced cell death
effect of co-treatment on IKE-induced lipidomic changes [2]: only partially eliminated lipidomic changes

CCCCC/C=C\C/C=C\C/C=C\C/C=C\CCCC(=O)O [arachidonic acid]
toxicity of free fatty acid to cells [3]: toxic to cells

CCCCC/C=C\C/C=C\C/C=C\CCCCC(=O)O [γ-linolenic acid]
toxicity of free fatty acid to cells [3]: toxic to cells

CCOC(=O)c1ccc(NC2CCCCC2)c(N)c1 [fer-1, ferrostatin-1]
effect of co-treatment on IKE-induced lipid ROS signal ([4]; 10 μM fer-1 co-treatment): inhibited this signal
effect of co-treatment on IKE-induced upregulation of lipid metabolism genes ([5]; SUDHL6 cells): partially reversed
effect of co-treatment on IKE-induced CHAC1 upregulation [5, 25]: did not inhibit CHAC1 upregulation
effect of co-treatment on IKE-induced PTGS2 upregulation [5, 25]: inhibited PTGS2 upregulation
effect of fer-1 co-treatment on cell death induced by IKE and IKE PEG-PLGA NPs [6]: rescued cell death
effect of fer-1 co-treatment on cell death induced by IKE ([1]; DLBCL cell lines): rescued cell death
MAG lipids [2, 26]: decreased
TAG lipids [2, 26]: significantly increased

CC(C)Oc1ccc(C(=O)Cn2ccnc2)cc1-n1c(CN2CCN(C(=O)COc3ccc(Cl)cc3)CC2)nc2ccccc2c1=O [IKE, imidazole ketone erastin]
MDA increase (TBARS, MDA-TBA adduct fluorescence) ([7]; IKE 23 mg/kg): 1.4 fold
MDA increase (TBARS, MDA-TBA adduct fluorescence) ([7]; IKE 40 mg/kg): 1.8 fold
metabolic stability [8]: high
potency improvement comparing to erastin ([9]; in some cell lines): > 100 x
potency [9]: nanomolar
IC50 [10]: < 0.1 µM
lipid ROS (C11-BODIPY) ([4]; different concentrations of IKE): dose-dependent increase
IC50 [11]: 0.1 to 10 µM
CHAC1 mRNA upregulation in tumor [12]: 2 fold
PTGS2 mRNA upregulation in tumor [12]: 3–5 fold
SLC7A11 mRNA upregulation in tumor [12]: 3–5 fold
cellular level of reduced glutathione (GSH) ([13]; SUDHL6 cells, different concentrations of IKE, 24 hours): dose-dependent GSH depletion
IC50 ([13]; read-out: IC50 of GSH depletion, SUDHL-6 cells, 24 h): 0.034 µM
GPX4, CBS and ACSL4 expression ([5]; IKE treatment, data not shown): not upregulated
SLC7A11, PTGS2 and CHAC1 expression ([5]; SUDHL-6 cells, 500 nM IKE): significantly increased
comparison of dosage routes by IKE concentration over eight hours [14]: IP to be the most effective and practical means
IC50 [15]: > 10 µM
IC50 [16]: > 10 µM
IC50 [17]: 0.1 to 10 µM
dihydropyridine-MDA-lysine-adduct abundance [18]: increased
GSH depletion in tumor tissue [19]: over 50%
caspase-3 activity in tumor tissues [20]: no increase in caspase-3 activity
mouse weight ([21]; IKE 23 mg/kg daily): weight loss
mouse weight ([21]; IKE 40 mg/kg daily): weight loss
increase in 8-OH-dG intensity in tumor sections ([22]; IKE 23 mg/kg daily for 14 days): 1.8 fold
increase in COX-2 intensity in tumor sections ([22]; IKE 23 mg/kg daily for 14 days): 2.0 fold
increase in MDA intensity in tumor sections ([22]; IKE 23 mg/kg daily for 14 days): 1.8 fold
increase in 8-OH-dG intensity in tumor sections ([22]; IKE 40 mg/kg daily for 14 days): 2.2 fold
increase in COX-2 intensity in tumor sections ([22]; IKE 40 mg/kg daily for 14 days): 2.8 fold
increase in MDA intensity in tumor sections ([22]; IKE 40 mg/kg daily for 14 days): 2.0 fold
T1/2 plasma [23, 27]: 1.83 h
T1/2 tumor [23, 27]: 3.50 h
highest plasma concentration [23, 28]: 5.2 µg/mL
highest tumor accumulation [23, 28]: 2.5 µg/mL
time of highest plasma concentration [23, 28]: 1.35 h
time of highest tumor accumulation [23, 28]: 3.30 h

CC/C=C\C/C=C\C/C=C\C/C=C\C/C=C\CCCC(=O)O [eicosapentaenoic acid]
toxicity of free fatty acid to cells [3]: toxic to cells

OCCS [β-ME, β-mercaptoethanol]
effect of co-treatment on IKE-induced GSH depletion ([13]; 10 μM β-ME co-treatment, SUDHL6 cells, 24 hours): reversed
effect of co-treatment on IKE-induced upregulation of lipid metabolism genes ([5]; SUDHL6 cells): partially reversed
effect of co-treatment on IKE-induced upregulation of SLC7A11, PTGS2 and CHAC1 ([5]; 10 μM β-ME with 500 nM IKE, 6 hours, SUDHL6 cells): prevented
effect of co-treatment on IKE-induced lipidomic changes [2]: reversed these effects

CCOc1ccccc1-n1c(C(C)N2CCN(C(=O)COc3ccc(Cl)cc3)CC2)nc2ccccc2c1=O (stereo not drawn) [erastin, reference compound]
metabolic stability [8]: metabolically labile

CCCCCC/C=C\CCCCCCCC(=O)O [palmitoleic acid]
effect of free fatty acid on ferroptosis [3]: protected against ferroptosis

CCCCCCCC/C=C\CCCCCCCC(=O)O [oleic acid]
effect of free fatty acid on ferroptosis [3]: protected against ferroptosis

O=C(O)c1cc(/N=N/c2ccc(S(=O)(=O)Nc3ccccn3)cc2)ccc1O [sulfasalazine]
IC50 for GSH depletion [24]: millimolar range
